Measured values: patent US20230331739A1, “INDOLO HEPTAMYL OXIME ANALOG CRYSTAL AS PARP INHIBITOR AND METHOD FOR PREPARING SAME” (CHIA TAI TIANQING PHARMACEUTICAL GROUP CO., LTD., priority 2020, published 2023)

Legend:
[1] = Protein binding rate in plasma (equilibrium dialysis), CD-1 mouse; format: in vitro ADME; conditions: CD-1 mouse plasma, 4 h dialysis
Procedure: The protein binding rates of the compound disclosed herein in plasma of human, CD-1 mice and SD rats were determined. 796 μL of blank plasma was taken from human, CD-1 mice or SD rats, and 4 μL of test compound working solution (400 μM) or warfarin working solution (400 μM) was added to achieve a final concentration of 2 μM of both the test compound and the warfarin in the plasma sample. The samples were mixed well. The final concentration of organic phase DMSO was 0.5%; 50 μL of test compound and warfarin plasma sample was pipetted into a sample receiving plate (in triplicate), and a corresponding volume of blank plasma or buffer was immediately added such that the final volume in each sample well was 100 μL. The volume ratio of plasma to dialysis buffer was 1:1. […] All samples were subjected to LC/MS analysis after protein precipitation, and the protein binding rates and the recovery rates were calculated by the following formulas: protein unbinding rate (%)=100× drug concentration passing through dialysis membrane/drug concentration not passing through dialysate; protein binding rate (%)=100−protein unbinding rate (%); recovery rate (%)=100×(drug concentration passing through dialysis membrane+drug concentration not passing through dialysate)/total drug concentration before dialysis.

PARP1 = PARP1 (Homo sapiens (Human), UniProt P09874); assay: PARP-1 enzymatic assay (HT Universal Chemiluminescent PARP Assay kit); format: biochemical
Procedure: Materials: test compounds; HT Universal Chemiluminescent PARP Assay kit (purchased from TREVIGEN); PBS (phosphate buffer saline, purchased from Wisent); Triton X-100 (purchased from Macklin); Envision Multimode Plate Reader (PerkinElmer).
1. Washing solution: Triton X-100 was added to 1×PBS with a final concentration of Triton X-100 of 0.1%.
2. 1×PARP buffer: The 20×PARP buffer in the kit was 20-fold diluted with water to prepare a 1×PARP buffer, which was used to prepare the compounds, enzyme solutions and substrate solutions.
3. 1×Strep-Diluent solution: The 10×Strep-diluent in the kit was 10-fold diluted with water to prepare a 1×Strep-diluent solution.
The test compounds were diluted from 200 μM to 2.56 nM. The DMSO concentration was 100%. 2 μL of each of the inhibitors at various concentration gradients was added to a compound intermediate plate, and 38 μL of the 1×PARP buffer was then added. The two were mixed well for use, and the DMSO concentration was 5% at this time.
a) The 1×PARP buffer was added to a test plate at 50 μL per well, and the test plate was incubated at 25° C. for 30 min. […]
PeroxyGlow A and B in the kit were mixed at a ratio of 1:1, and the mixed solution was added to the test plate at 100 μL per well. Chemiluminescence was immediately read using a PerkinElmer Envision Multimode Plate Reader with an integration time of 0.5 s. […]

PARP1, sequence (P09874 whole entry): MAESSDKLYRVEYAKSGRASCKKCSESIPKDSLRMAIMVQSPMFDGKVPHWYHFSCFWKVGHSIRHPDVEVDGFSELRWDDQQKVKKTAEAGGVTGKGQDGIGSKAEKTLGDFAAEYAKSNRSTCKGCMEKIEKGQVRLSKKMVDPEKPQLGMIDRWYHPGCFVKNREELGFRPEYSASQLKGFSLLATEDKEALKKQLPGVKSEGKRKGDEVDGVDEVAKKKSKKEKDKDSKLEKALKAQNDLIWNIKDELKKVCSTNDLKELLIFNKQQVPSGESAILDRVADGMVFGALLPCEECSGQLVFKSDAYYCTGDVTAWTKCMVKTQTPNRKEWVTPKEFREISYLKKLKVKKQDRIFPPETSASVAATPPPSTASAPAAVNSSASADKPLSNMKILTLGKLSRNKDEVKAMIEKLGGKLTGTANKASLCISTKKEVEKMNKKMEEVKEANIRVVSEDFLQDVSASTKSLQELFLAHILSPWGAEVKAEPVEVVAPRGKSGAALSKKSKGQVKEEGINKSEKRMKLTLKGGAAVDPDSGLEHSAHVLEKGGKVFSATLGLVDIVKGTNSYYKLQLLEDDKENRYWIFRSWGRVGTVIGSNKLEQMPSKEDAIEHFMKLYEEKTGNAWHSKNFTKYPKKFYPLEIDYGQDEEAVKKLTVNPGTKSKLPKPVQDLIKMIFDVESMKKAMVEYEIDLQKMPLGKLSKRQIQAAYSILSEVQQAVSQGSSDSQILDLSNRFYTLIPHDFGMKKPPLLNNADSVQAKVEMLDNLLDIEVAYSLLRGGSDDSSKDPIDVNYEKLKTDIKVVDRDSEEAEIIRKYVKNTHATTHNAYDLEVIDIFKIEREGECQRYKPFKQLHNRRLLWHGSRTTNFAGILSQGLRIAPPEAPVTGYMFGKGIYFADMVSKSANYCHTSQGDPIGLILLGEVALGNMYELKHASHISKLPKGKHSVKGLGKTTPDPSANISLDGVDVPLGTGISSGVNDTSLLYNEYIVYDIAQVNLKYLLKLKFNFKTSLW

In the case of `C[C@]1(c2ccc(-c3[nH]c4cc(F)cc5c4c3CONC5=O)cc2)CCCN1` [Compound 1], the fraction unbound at 4 h, 2 μM [1] is reported as 0.104 and the IC50 (PARP1) is reported as 2.3 nM.
